Data on 4 compounds can be found in paper PMC11999305, “Biochemical characterization of zebrafish Paqr5b” (Biochemistry and Biophysics Reports, 2025).

Assay [1] has as its target T1, zPaqr5b (zebrafish Paqr5b) (Danio rerio, UniProt Q6DC77).
T1 construct: full-length CDS in pPICZalphaC; alpha-factor pre-pro signal N-terminal (major purified band 55 kDa keeps it, 45 kDa band Kex2-cut), C-terminal c-Myc and 6xHis kept; Pichia pastoris X-33; DDM-solubilized, purified by Ni-NTA and Sephacryl S-300
T1 sequence (Q6DC77 1-347): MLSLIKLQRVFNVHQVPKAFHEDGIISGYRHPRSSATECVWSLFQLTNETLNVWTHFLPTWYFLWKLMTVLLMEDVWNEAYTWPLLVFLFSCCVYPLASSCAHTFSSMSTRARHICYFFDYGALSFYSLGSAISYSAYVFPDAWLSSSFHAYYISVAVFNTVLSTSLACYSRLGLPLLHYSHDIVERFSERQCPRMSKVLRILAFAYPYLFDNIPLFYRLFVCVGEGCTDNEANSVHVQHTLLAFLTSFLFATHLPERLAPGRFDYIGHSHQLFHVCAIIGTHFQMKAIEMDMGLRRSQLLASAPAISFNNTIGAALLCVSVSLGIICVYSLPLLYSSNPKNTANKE
The experiment in a line: competition with [3H]-progesterone, filter binding. The source says:
competition with [3H]-progesterone, filter binding on zPaqr5b (zebrafish Paqr5b)

In assay [2] the target is T1, zPaqr5b (zebrafish Paqr5b). Briefly: radioligand saturation, filter binding, Scatchard.

Where two headings read alike, the source gives them in different places.

On to `CC(=O)[C@H]1CC[C@H]2[C@@H]3CC[C@H]4C[C@H](O)CC[C@]4(C)[C@H]3CC[C@]12C` [ALLO, allopregnanolone], for which the half-maximal inhibitory concentration (IC50) in assay [1] is 25.2 nM. On to `C[C@@H](O)[C@@]1(O)CC[C@H]2[C@@H]3CCC4=CC(=O)CC[C@]4(C)[C@H]3CC[C@@]21C` [DHP, 17α,20β-dihydroxy-4-pregnen-3-one], for which, in assay [1] (read-out: IC50), the 50% inhibitory concentration (IC50) turned out to be 19.2 nM. `CC(=O)[C@H]1CC[C@H]2[C@@H]3CCC4=CC(=O)CC[C@]4(C)[C@H]3CC[C@]12C` [P4, progesterone] returned a Kd in assay [2] of 4.6 nM. Also, the half-inhibitory concentration (IC50) in assay [1] (read-out: IC50) worked out at 5.32 nM.

On to `CC(=O)[C@H]1CC[C@H]2[C@@H]3CC=C4C[C@@H](O)CC[C@]4(C)[C@H]3CC[C@]12C` [Preg, pregnenolone], for which the IC50 in assay [1] (read-out: IC50) was found to be 38.3 nM.
